Measured values published in patent publication EP4656642A1, “ESTROGEN RECEPTOR PROTEOLYSIS TARGETING CHIMERA COMPOUND AND USE THEREOF” (GAN & LEE PHARM CO., LTD, priority 2023, dated 2024).

Tests used:
Type in all cases: cell-based
ERα [1] = biological target: T1, ERα (Homo sapiens, UniProt P03372); experiment: Degradation of ERα in T-47D cells (immunoblotting, 4 h); design: host or cells: T-47D
T1 sequence (P03372 1-595): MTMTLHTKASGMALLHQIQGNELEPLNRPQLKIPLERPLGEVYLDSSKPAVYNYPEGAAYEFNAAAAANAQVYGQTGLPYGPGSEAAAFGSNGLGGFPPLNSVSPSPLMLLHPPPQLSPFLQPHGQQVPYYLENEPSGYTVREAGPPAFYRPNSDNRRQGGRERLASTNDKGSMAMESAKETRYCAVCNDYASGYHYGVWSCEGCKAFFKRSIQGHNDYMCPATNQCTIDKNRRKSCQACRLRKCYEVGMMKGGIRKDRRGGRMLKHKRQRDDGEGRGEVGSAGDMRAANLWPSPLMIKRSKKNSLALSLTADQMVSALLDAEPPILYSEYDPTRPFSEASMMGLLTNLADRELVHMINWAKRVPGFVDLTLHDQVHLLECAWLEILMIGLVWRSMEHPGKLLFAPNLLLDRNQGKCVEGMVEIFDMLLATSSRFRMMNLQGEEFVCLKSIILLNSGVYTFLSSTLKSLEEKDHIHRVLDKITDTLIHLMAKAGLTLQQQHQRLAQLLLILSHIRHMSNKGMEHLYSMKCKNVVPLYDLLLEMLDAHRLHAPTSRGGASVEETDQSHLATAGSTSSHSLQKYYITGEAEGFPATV
Method in brief: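 T-47D cells were treated with compound (final 0.15-1000 nM, DMSO) for 4 h at 37°C, 5% CO2. Cells were lysed in RIPA buffer with protease inhibitor, and ERα protein in the cleared lysate was measured by immunoblotting.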

ERα [2] = biological target: T1, ERα; experiment: Degradation of ERα in MCF-7 cells (immunoblotting, 4 h)
Method in brief: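 MCF-7 cells treated 4 h at 37°C with compounds at 0.15-1000nM final. ERα in lysates measured by immunoblot, with band grayscale normalized to an internal reference protein. Degradation rate calculated against DMSO-treated control.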

MCF-7 cells = experiment: Inhibition of cell proliferation of MCF-7 cells (CCK-8, 9 days); settings: treated for 9 days, CCK-8 kit (Table 6)
Method in brief: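 MCF-7 cells seeded at 800 cells/well in DMEM with 10% FBS, exposed to a range of compound concentrations for 9 days at 37°C, 5% CO2. Viability read by CCK-8; IC50 derived for proliferation inhibition.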

O=C1CCC(N2Cc3c(ccc4c3OCC43CCN(C4CC5CCC(C4)N5C(=O)C4CCN(c5ccc([C@@H]6c7ccc(O)cc7CC[C@@H]6c6ccccc6)cc5)CC4)CC3)C2=O)C(=O)N1 (some centres unmarked) [G10]
Degradation rate (%) of ERα in T-47D cells (ERα [1]; 1nM compound): 62% | Degradation rate (%) of ERα in T-47D cells (ERα [1]; 10nM compound): 85% | Degradation rate (%) of ERα in MCF-7 cells (ERα [2]; 1nM compound): 45% | Degradation rate (%) of ERα in MCF-7 cells (ERα [2]; 10nM compound): 66% | IC50 (MCF-7 cells): 18.2 nM

O=C1CCC(N2Cc3c(ccc4c3OCC43CCN(C4CC5(CCC6(CC5)CN(c5ccc([C@@H]7c8ccc(O)cc8CC[C@@H]7c7ccccc7)cc5)C6)C4)CC3)C2=O)C(=O)N1 (some centres unmarked) [A81]
Degradation rate (%) of ERα in T-47D cells (ERα [1]; 1nM compound): -33% | Degradation rate (%) of ERα in T-47D cells (ERα [1]; 10nM compound): 45% | Degradation rate (%) of ERα in MCF-7 cells (ERα [2]; 1nM compound): -39% | Degradation rate (%) of ERα in MCF-7 cells (ERα [2]; 10nM compound): 20% | IC50 (MCF-7 cells): 22.3 nM

CN(CC1CCN(c2ccc([C@@H]3c4ccc(O)cc4CC[C@@H]3c3ccccc3)cc2)CC1)[C@H]1CC[C@@H](C(=O)N2CCC3(CC2)COc2c3ccc3c2CN(C2CCC(=O)NC2=O)C3=O)CC1 (some centres unmarked) [B34]
Degradation rate (%) of ERα in T-47D cells (ERα [1]; 1nM compound): 71% | Degradation rate (%) of ERα in T-47D cells (ERα [1]; 10nM compound): 83% | Degradation rate (%) of ERα in MCF-7 cells (ERα [2]; 1nM compound): 64% | Degradation rate (%) of ERα in MCF-7 cells (ERα [2]; 10nM compound): 71% | IC50 (MCF-7 cells): 179 nM

O=C1CCC(N2Cc3c(ccc4c3OCC43CCN(C(=O)[C@H]4C[C@@H](OC5CCN(c6ccc([C@@H]7c8ccc(O)cc8CC[C@@H]7c7ccccc7)cc6)CC5)C4)CC3)C2=O)C(=O)N1 (some centres unmarked) [H61]
Degradation rate (%) of ERα in T-47D cells (ERα [1]; 1nM compound): 63% | Degradation rate (%) of ERα in T-47D cells (ERα [1]; 10nM compound): 76% | Degradation rate (%) of ERα in MCF-7 cells (ERα [2]; 1nM compound): 37% | Degradation rate (%) of ERα in MCF-7 cells (ERα [2]; 10nM compound): 40% | IC50 (MCF-7 cells): 4020 nM

CN(C(=O)CN1CC2(CCc3cc4c(cc3O2)CN(C2CCC(=O)NC2=O)C4=O)C1)C1CCC2(CC1)CN(c1ccc([C@@H]3c4ccc(O)cc4CC[C@@H]3c3ccccc3)cc1)C2 (some centres unmarked) [K45]
Degradation rate (%) of ERα in T-47D cells (ERα [1]; 1nM compound): 37% | Degradation rate (%) of ERα in T-47D cells (ERα [1]; 10nM compound): 74% | Degradation rate (%) of ERα in MCF-7 cells (ERα [2]; 1nM compound): 21% | Degradation rate (%) of ERα in MCF-7 cells (ERα [2]; 10nM compound): 59% | IC50 (MCF-7 cells): 75.2 nM

O=C1CCC(N2Cc3cc4c(cc3C2=O)OC2(CC4)CN(C3CCC(N4CCN(c5ccc([C@@H]6c7ccc(O)cc7CC[C@@H]6c6ccccc6)cc5)CC4)CC3)C2)C(=O)N1 (some centres unmarked) [B16]
Degradation rate (%) of ERα in T-47D cells (ERα [1]; 1nM compound): 24% | Degradation rate (%) of ERα in T-47D cells (ERα [1]; 10nM compound): 60% | Degradation rate (%) of ERα in MCF-7 cells (ERα [2]; 1nM compound): -36% | Degradation rate (%) of ERα in MCF-7 cells (ERα [2]; 10nM compound): 16% | IC50 (MCF-7 cells): 740 nM

O=C1CCC(N2Cc3cc4c(cc3C2=O)OC2(CC4)CN(C3CC4(CCC5(CCN(c6ccc([C@@H]7c8ccc(O)cc8CC[C@@H]7c7ccccc7)cc6)CC5)CC4)C3)C2)C(=O)N1 (some centres unmarked) [H24]
Degradation rate (%) of ERα in T-47D cells (ERα [1]; 1nM compound): 16% | Degradation rate (%) of ERα in T-47D cells (ERα [1]; 10nM compound): 21% | Degradation rate (%) of ERα in MCF-7 cells (ERα [2]; 1nM compound): -7% | Degradation rate (%) of ERα in MCF-7 cells (ERα [2]; 10nM compound): 11% | IC50 (MCF-7 cells): 1180 nM

C[C@@H]1Cc2cc(O)ccc2C(c2c(F)cc(N3CCC(C(=O)N4CCC(N5CCC6(CC5)COc5c6ccc6c5CN(C5CCC(=O)NC5=O)C6=O)[C@H](F)C4)CC3)cc2F)N1CC(F)F (some centres unmarked) [F10]
Degradation rate (%) of ERα in T-47D cells (ERα [1]; 1nM compound): 59% | Degradation rate (%) of ERα in T-47D cells (ERα [1]; 10nM compound): 65% | Degradation rate (%) of ERα in MCF-7 cells (ERα [2]; 1nM compound): 53% | Degradation rate (%) of ERα in MCF-7 cells (ERα [2]; 10nM compound): 43% | IC50 (MCF-7 cells): 3.81 nM

O=C1CCC(N2C(=O)c3ccc4c(c3C2=O)OCC42CCN(C3CCC4(CC3)CCN(c3ccc([C@@H]5c6ccc(O)cc6CC[C@@H]5c5ccccc5)cc3)CC4)CC2)C(=O)N1 (some centres unmarked) [L4]
Degradation rate (%) of ERα in T-47D cells (ERα [1]; 1nM compound): 9% | Degradation rate (%) of ERα in T-47D cells (ERα [1]; 10nM compound): 44% | Degradation rate (%) of ERα in MCF-7 cells (ERα [2]; 1nM compound): 9% | Degradation rate (%) of ERα in MCF-7 cells (ERα [2]; 10nM compound): 48% | IC50 (MCF-7 cells): 970 nM

CN(C(=O)CN1CCC2(CC1)COc1cc3c(cc12)CN(C1CCC(=O)NC1=O)C3=O)C1CCC2(CC1)CN(c1ccc([C@@H]3c4ccc(O)cc4CC[C@@H]3c3ccccc3)cc1)C2 (some centres unmarked) [H56]
Degradation rate (%) of ERα in T-47D cells (ERα [1]; 1nM compound): 24% | Degradation rate (%) of ERα in T-47D cells (ERα [1]; 10nM compound): 47% | Degradation rate (%) of ERα in MCF-7 cells (ERα [2]; 1nM compound): -5% | Degradation rate (%) of ERα in MCF-7 cells (ERα [2]; 10nM compound): 21% | IC50 (MCF-7 cells): 2250 nM

O=C1CCC(N2Cc3ccc4c(c3C2=O)OCC2(CCN(C3CC5(CCN(c6ccc([C@@H]7c8ccc(O)cc8CC[C@@H]7c7ccccc7)cc6)CC5)C3)CC2)C4)C(=O)N1 (some centres unmarked) [L9]
Degradation rate (%) of ERα in T-47D cells (ERα [1]; 1nM compound): 15% | Degradation rate (%) of ERα in T-47D cells (ERα [1]; 10nM compound): 49% | Degradation rate (%) of ERα in MCF-7 cells (ERα [2]; 1nM compound): 10% | Degradation rate (%) of ERα in MCF-7 cells (ERα [2]; 10nM compound): 29% | IC50 (MCF-7 cells): 1420 nM

O=C1CCC(N2Cc3c(ccc4c3OCC43CCN(CCN4CCC5(CC4)CCN(c4ccc([C@@H]6c7ccc(O)cc7CC[C@@H]6c6ccccc6)cc4)CC5)CC3)C2=O)C(=O)N1 (some centres unmarked) [A71]
Degradation rate (%) of ERα in T-47D cells (ERα [1]; 1nM compound): 52% | Degradation rate (%) of ERα in T-47D cells (ERα [1]; 10nM compound): 86% | Degradation rate (%) of ERα in MCF-7 cells (ERα [2]; 1nM compound): 32% | Degradation rate (%) of ERα in MCF-7 cells (ERα [2]; 10nM compound): 73% | IC50 (MCF-7 cells): 14.5 nM

O=C1CCC(N2Cc3c(ccc4c3OCC43CCN(C(=O)[C@H]4C[C@H](OC5CCN(c6ccc([C@@H]7c8ccc(O)cc8CC[C@@H]7c7ccccc7)cc6)CC5)C4)CC3)C2=O)C(=O)N1 (some centres unmarked) [K48]
Degradation rate (%) of ERα in T-47D cells (ERα [1]; 1nM compound): 47% | Degradation rate (%) of ERα in T-47D cells (ERα [1]; 10nM compound): 80% | Degradation rate (%) of ERα in MCF-7 cells (ERα [2]; 1nM compound): 20% | Degradation rate (%) of ERα in MCF-7 cells (ERα [2]; 10nM compound): 42% | IC50 (MCF-7 cells): 9210 nM

C[C@@H]1CN(C(=O)C2CCN(c3cc(F)c(C4c5ccc(O)cc5C[C@@H](C)N4CC(F)F)c(F)c3)CC2)CCC1N1CCC2(CC1)COc1c2ccc2c1CN(C1CCC(=O)NC1=O)C2=O (some centres unmarked) [I5]
Degradation rate (%) of ERα in T-47D cells (ERα [1]; 1nM compound): 55% | Degradation rate (%) of ERα in T-47D cells (ERα [1]; 10nM compound): 68% | Degradation rate (%) of ERα in MCF-7 cells (ERα [2]; 1nM compound): 60% | Degradation rate (%) of ERα in MCF-7 cells (ERα [2]; 10nM compound): 56% | IC50 (MCF-7 cells): 10.5 nM

O=C1CCC(N2Cc3c(ccc4c3OCC43CCN(CC(=O)N4CCC5(CC4)CN(c4ccc([C@@H]6c7ccc(O)cc7CC[C@@H]6c6ccccc6)cc4)C5)CC3)C2=O)C(=O)N1 (some centres unmarked) [B22]
Degradation rate (%) of ERα in T-47D cells (ERα [1]; 1nM compound): 47% | Degradation rate (%) of ERα in T-47D cells (ERα [1]; 10nM compound): 83% | Degradation rate (%) of ERα in MCF-7 cells (ERα [2]; 1nM compound): 38% | Degradation rate (%) of ERα in MCF-7 cells (ERα [2]; 10nM compound): 70% | IC50 (MCF-7 cells): 11.8 nM

C[C@@H]1Cc2c(ccc3[nH]ncc23)C(c2ccc(N3CCC4(CCN(C(=O)CN5CCC6(CC5)COc5c6ccc6c5CN(C5CCC(=O)NC5=O)C6=O)C4)CC3)cn2)N1CC(F)(F)F (some centres unmarked) [J14]
Degradation rate (%) of ERα in T-47D cells (ERα [1]; 1nM compound): 55% | Degradation rate (%) of ERα in T-47D cells (ERα [1]; 10nM compound): 74% | Degradation rate (%) of ERα in MCF-7 cells (ERα [2]; 1nM compound): 5% | Degradation rate (%) of ERα in MCF-7 cells (ERα [2]; 10nM compound): 39% | IC50 (MCF-7 cells): 9660 nM
